Columns and labels:
Swiss mice = test: Fat tolerance test (ftt) in mice; assay type: in vivo; details: 3 mg/kg, p.o.; olive oil load 10 mL/kg 30 min after treatment; AUC0-4h, vehicle group as 100%
Description: Swiss mice of age 4-5 weeks and body weight between 25-30 g were selected for study. After fasting for about 16 h, the animals were divided into three groups based on plasma triglyceride level with same mean and variation. Animals were administered with either vehicle [(1% tween 80 in 0.5% carboxy methylcellulose (CMC)]) or with compounds of the present invention (3 mg/kg, p.o.). Compounds of the present invention were prepared as suspension in 0.5% carboxy methylcellulose (CMC) with 1% tween 80. Olive oil (fat) load (10 mL/kg, p.o.) was given, 30 min after the treatment. Blood samples were collected at 1, 2, 3 and 4 h after the fat (olive oil) load. Plasma was separated and triglyceride level was measured using commercially available kits (diasys, Germany). Percentage reduction in area under curve (AUC0-4h) of the test compound was calculated by taking AUC0-4h of the vehicle group as 100%.

hDGAT1 = molecular target: T1, hDGAT1 (Homo sapiens, UniProt O75907); test: In-vitro DGAT1 assay (14C oleoyl CoA, hDGAT1 microsomes from Sf9 cells); details: for inhibition at 1 µM: read-out: % Inhibition of hDGAT1; for % Inhibition of hDGAT1: at 1 μM
T1 sequence (O75907 1-488): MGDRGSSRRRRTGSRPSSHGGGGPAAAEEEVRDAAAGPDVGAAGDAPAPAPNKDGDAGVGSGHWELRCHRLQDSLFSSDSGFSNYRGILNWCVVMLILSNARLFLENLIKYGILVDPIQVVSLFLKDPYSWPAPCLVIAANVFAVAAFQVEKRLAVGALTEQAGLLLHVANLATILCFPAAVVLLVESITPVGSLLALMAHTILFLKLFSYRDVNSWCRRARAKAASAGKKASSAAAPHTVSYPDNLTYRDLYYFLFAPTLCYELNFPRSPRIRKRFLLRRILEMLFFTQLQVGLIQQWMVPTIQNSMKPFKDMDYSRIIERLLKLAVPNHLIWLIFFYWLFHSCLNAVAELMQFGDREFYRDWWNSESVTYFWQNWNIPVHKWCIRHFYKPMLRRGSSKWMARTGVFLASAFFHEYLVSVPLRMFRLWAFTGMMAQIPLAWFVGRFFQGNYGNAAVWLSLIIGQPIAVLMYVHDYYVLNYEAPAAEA

Row | Structure (SMILES) | % Reduction (Plasma triglyceride) (Swiss mice) | inhibition at 1 µM (hDGAT1) [%] | % Inhibition of hDGAT1 (hDGAT1)
1 | CC(C)[C@@H](C(=O)O)N1Cc2ccc(-c3ccc(NC(=O)c4ccc(Oc5ccccc5)cc4)cc3)cc2C1=O [Example 150, (S)-3-Methyl-2-(1-oxo-6-(4-(4-phenoxybenzamido)phenyl)isoindolin-2-yl)butanoic acid] | ++ (>50% Reduction) | > 50 | 
2 | CCCCCc1ccc(C(=O)Nc2ccc(-c3ccc4c(c3)C(=O)N([C@H](C(=O)O)C(C)C)C4)cc2)cc1 [Example 124, (S)-3-Methyl-2-(1-oxo-6-(4-(4-pentylbenzamido)phenyl)isoindolin-2-yl)butanoic acid] | ++ (>50% Reduction) | > 50 | 
3 | CC(C)[C@@H](C(=O)O)N1Cc2ccc(-c3ccc(NC(=O)c4ccc5ccccc5c4)cn3)cc2C1=O [Example 410, (S)-2-(6-(5-(2-Naphthamido)pyridin-2-yl)-1-oxoisoindolin-2-yl)-3-methylbutanoic acid] | ++ (>50% Reduction) | > 50 | 
4 | CCCc1ccc(C(=O)Nc2ccc(-c3ccc4c(c3)C(=O)N([C@H](C(=O)O)C(C)C)C4)cc2)cc1 [Example 170, (S)-3-Methyl-2-(1-oxo-6-(4-(4-propylbenzamido)phenyl)isoindolin-2-yl)butanoic acid] | ++ (>50% Reduction) | > 50 | 
5 | CC(C)[C@@H](C(=O)O)N1Cc2ccc(-c3ccc(NC(=O)c4ccc(-c5ccccc5)cc4)cn3)cc2C1=O [Example 408, (S)-2-(6-(5-Biphenyl-4-ylcarboxamidopyridin-2-yl)-1-oxoisoindolin-2-yl)-3-methylbutanoic acid] | ++ (>50% Reduction) |  | ++ (>50% Inhibition)
6 | CC(C)[C@@H](C(=O)O)N1Cc2ccc(-c3ccc(NC(=O)c4cccc(Oc5ccccc5)c4)cc3)cc2C1=O [Example 148, (S)-3-Methyl-2-(1-oxo-6-(4-(3-phenoxybenzamido)phenyl)isoindolin-2-yl)butanoic acid] | ++ (>50% Reduction) | > 50 | 
7 | CC(C)[C@@H](C(=O)O)N1Cc2ccc(-c3ccc(NC(=O)c4ccc(C(C)(C)C)cc4)cc3)cc2C1=O [Example 116, (S)-2-(6-(4-(4-tert-Butylbenzamido)phenyl)-1-oxoisoindolin-2-yl)-3-methyl butanoic acid] | ++ (>50% Reduction) | > 50 | 
8 | CCCCCc1ccc(C(=O)Nc2ccc(-c3ccc4c(c3)C(=O)N([C@H](C(=O)O)C(C)C)C4)nc2)cc1 [Example 406, (S)-3-Methyl-2-(1-oxo-6-(5-(4-pentylbenzamido)pyridin-2-yl)isoindolin-2-yl)butanoic acid] | ++ (>50% Reduction) | > 50 | 
9 | CC(C)[C@@H](C(=O)O)N1Cc2ccc(-c3ccc(NC(=O)c4ccc(-c5ccccc5)cc4)cc3)cc2C1=O [Example 120, (S)-2-(6-(4-Biphenyl-4-ylcarboxamidophenyl)-1-oxoisoindolin-2-yl)-3-methyl butanoic acid] | ++ (>50% Reduction) |  | ++ (>50% Inhibition)
